# According to patent publication US7375203B2, “Canine cold- and menthol-sensitive receptor 1” (Janssen Pharmaceutica N.V., priority 2004, dated 2008):
# Entries after “also recorded” stand apart in the source; their conditions may differ.
# Legend:
# cCMR1 channel = test: Whole-cell patch clamp recording of HEK293 cells stably transfected with cCMR1; type: cell-based, canine
# Protocol: HEK293 cells stably transfected with canine cCMR1 were cultured in DMEM supplemented with 10% fetal bovine serum, 100 units/ml penicillin, 100 μg/ml streptomycin and 1 mg/ml G418. Cells were maintained at 37° C. and in 5% CO2. Unless otherwise indicated, the standard extracellular solution used for recording contained (in mM): NaCl, 132; EGTA, 1; KCl, 5.4; MgCl2, 0.8; HEPES, 10; glucose, 10; pH=7.4. In experiments where the extracellular solution contained Ca^2+, the extracellular solution used was one of the following (in mM), depending on the Ca^2+ concentration used: (1) NaCl, 132; CaCl2, 0.1 or 1.8; KCl, 5.4; MgCl2, 0.8; HEPES, 10; glucose, 10; pH=7.4; (2) NaCl, 116; CaCl2, 10; KCl, 5.4; MgCl2, 0.8; HEPES, 10; glucose, 10; pH=7.4. The intracellular solution used to fill recording pipettes contained (in mM): CsCl, 145; EGTA, 5; HEPES, 10; glucose, 5; pH=7.4. Recordings were performed using the conventional whole-cell patch clamp technique, 1-2 days after plating cells onto glass coverslips at densities appropriate for single cell recording. Currents were amplified by a patch clamp amplifier and filtered at 2 kHz (Axopatch 200B, Axon Instruments). […] Recordings involving agonist stimulations were performed at 22° C. In experiments where temperatures were varied, temperature ramps were generated by heating/cooling the perfusate in a dual in-line heater/cooler (Model SC-20, Warner Instruments, Hamden, Conn.) controlled by a bipolar temperature controller (Model CL-100, Warner Instruments). The temperature in the vicinity of the recorded cell was measured with a custom-made miniature thermo-microprobe connected to a monitoring thermometer (Model TH-8, Physitemp, Clifton, N.J.), and sampled using Digidata 1322A and pClamp 9.0 (Axon Instruments, Union City, Calif.), as were the currents concurrently measured in the whole-cell patch clamp mode. Two voltage protocols were used in these studies. The first involved a 600 ms voltage ramp from −100 mV to +60 mV at a sampling rate of 10 kHz. This voltage pulse was repeated once every 5 seconds. The cell was held at −100 mV between voltage pulses. In the second protocol, the cell was held at −80 mV and the current was continuously sampled (at 100 Hz) at this holding potential.
# canine CMR1 (cCMR1) = test: Cell-based calcium influx (FLIPR) assay on HEK293 cells stably transfected with cCMR1; details: for calcium-mediated fluorescence (calcium influx): added at 200 seconds, room temperature
# Protocol: The following day, the cells were loaded with buffer and calcium dye (Molecular Devices, Sunnyvale, Calif.) in a final volume of 40 μl and incubated for 30 minutes at room temperature. The fluorescence intensity was measured by FLIPR before and after the addition of menthol or icilin, which were added to the cells at a concentration of 100 μM or 10 μM each, respectively.
# HEK293 cells stably transfected with cCMR1 were seeded in a 384 will plate at a concentration of […] and incubated overnight at 37° C./5% CO2. The following day the cells were loaded with calcium dye and incubated for 30 minutes at room temperature. The calcium-mediated fluorescence intensity was measured by FLIPR before and after the compound was administered to the cells.
structure (smiles),measurement,setting,value
[Ca+2] [extracellular Ca^2+],desensitization of menthol-activated cCMR1 current,"cCMR1 channel; 1.8 mM extracellular Ca^2+, 100 μM menthol, −80 mV",desensitization readily occurred
same,voltage dependence of inhibition of cCMR1 current amplitude,"cCMR1 channel; 10 mM extracellular Ca^2+, channel activated by 1 mM menthol",strongly inhibited the current amplitude at hyperpolarized potentials
same,IC50,"cCMR1 channel; voltage-clamped at −80 mV, channel activated by 1 mM menthol, logistic best fit, read-out: IC50 of inhibition of cCMR1 current amplitude by extracellular Ca^2+",1600 µM
O=C1NC(c2cccc([N+](=O)[O-])c2)=CCN1c1ccccc1O [icilin],calcium-mediated fluorescence (activation of cCMR1),canine CMR1 (cCMR1); 100 nM icilin (positive control),sensitive; also recorded: increase in calcium-mediated fluorescence
same,calcium-mediated fluorescence (calcium influx),canine CMR1 (cCMR1); 10 μM icilin,increase in calcium-mediated fluorescence
same,"whole-cell current amplitude, rectification and reversal potential","cCMR1 channel; icilin (1 μM), voltage ramp protocol, compared with the menthol results",Qualitatively similar results
CC1CCC(C(C)C)C(O)C1 (centres unmarked) [menthol],calcium-mediated fluorescence (calcium influx),canine CMR1 (cCMR1); 100 μM (−)-menthol,increase in calcium-mediated fluorescence
same,reversal potential of the menthol-activated current,"cCMR1 channel; 100 μM menthol, voltage ramp protocol",~0 mV
same,whole-cell current amplitude,"cCMR1 channel; 100 μM menthol, voltage ramp −100 mV to +60 mV, 22° C., compared to buffer control",large increase of the whole-cell current amplitude
same,current activated in the absence of extracellular Ca^2+,"cCMR1 channel; 100 μM menthol, −80 mV, no extracellular Ca^2+",activated a non-desensitizing current
C=CCN=C=S [mustard oil],calcium-mediated fluorescence (activation of cCMR1),canine CMR1 (cCMR1); 1 mM mustard oil,activated; also recorded: increase in calcium-mediated fluorescence
